Results as given in ChEMBL document CHEMBL1201862, “PubChem BioAssay data set” (2004).
Active and inactive are the calls of the source.

Columns and labels:
[1] = molecular target: T1, Cysteine protease ATG4B (Homo sapiens, UniProt Q9Y4P1); assay type: functional;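 also: Fluorescence-based dose-response confirmation assay measuring inhibition of ATG4B activity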
T1 sequence (Q9Y4P1 whole entry): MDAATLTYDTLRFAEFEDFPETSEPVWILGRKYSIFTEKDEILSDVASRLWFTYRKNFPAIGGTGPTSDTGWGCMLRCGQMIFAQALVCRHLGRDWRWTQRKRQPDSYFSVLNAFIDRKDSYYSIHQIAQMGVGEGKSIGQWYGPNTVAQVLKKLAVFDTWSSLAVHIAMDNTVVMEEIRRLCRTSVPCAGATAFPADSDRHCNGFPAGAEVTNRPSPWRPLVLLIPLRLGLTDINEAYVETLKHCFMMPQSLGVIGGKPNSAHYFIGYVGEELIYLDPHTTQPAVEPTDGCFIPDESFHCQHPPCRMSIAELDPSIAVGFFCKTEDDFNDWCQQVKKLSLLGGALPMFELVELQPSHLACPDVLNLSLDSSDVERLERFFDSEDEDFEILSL

[2] = tested on: Escherichia coli; assay: microbe, parasite or virus in culture
[3] = tested on: Escherichia coli; assay: microbe, parasite or virus in culture; remark: listed apart in the source
[4] = viability loss in THP-1 monocytes – THP-1 cells, cytotoxicity control for Vif-APOBEC3G degradation inhibitor project, dose response (AID 1117359); assay type: functional; conditions: THP-1
[5] = molecular target: Phospholipase A2 (Homo sapiens, UniProt P04054); assay type: functional;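 also: confirmatory dose-response counterscreen on phospholipase A2, testing hits that came from an ultra-high-throughput screen for ATG4B inhibitors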
Chain of Phospholipase A2 (P04054 whole entry): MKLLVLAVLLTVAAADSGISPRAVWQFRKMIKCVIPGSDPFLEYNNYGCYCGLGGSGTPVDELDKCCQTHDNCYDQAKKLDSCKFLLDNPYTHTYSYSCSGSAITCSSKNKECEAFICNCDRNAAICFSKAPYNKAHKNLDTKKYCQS

[6] = molecular target: T2, Protein Tat (Human immunodeficiency virus type 1 group M subtype B (isolate HXB2)(HIV-1), UniProt P04608); assay type: functional;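 also: tat binding to TAR RNA read out by fluorescence polarization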
T2 sequence (P04608 whole entry): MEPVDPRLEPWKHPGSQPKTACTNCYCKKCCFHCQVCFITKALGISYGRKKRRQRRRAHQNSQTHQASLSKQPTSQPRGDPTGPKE

[7] = molecular target: T3, Zinc finger protein mex-5 (Caenorhabditis elegans, UniProt Q9XUB2); assay: potency of MEX-5 RNA-binding blockers – biochemical, C. elegans, fluorescence polarization, dose response (AID 1960)
T3 sequence (Q9XUB2 whole entry): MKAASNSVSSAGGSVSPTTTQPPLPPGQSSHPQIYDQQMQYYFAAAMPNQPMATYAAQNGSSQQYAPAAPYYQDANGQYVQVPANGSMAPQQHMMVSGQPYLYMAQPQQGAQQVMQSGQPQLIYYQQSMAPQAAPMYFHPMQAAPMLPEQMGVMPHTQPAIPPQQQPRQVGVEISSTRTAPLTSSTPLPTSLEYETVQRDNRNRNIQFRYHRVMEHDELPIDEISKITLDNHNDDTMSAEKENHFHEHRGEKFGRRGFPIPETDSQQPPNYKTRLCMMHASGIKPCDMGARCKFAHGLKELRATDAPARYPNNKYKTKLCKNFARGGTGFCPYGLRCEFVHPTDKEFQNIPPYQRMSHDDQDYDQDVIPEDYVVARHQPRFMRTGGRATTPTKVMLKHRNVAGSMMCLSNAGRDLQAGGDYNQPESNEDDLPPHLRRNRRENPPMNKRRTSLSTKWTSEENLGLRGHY

[8] = tested on: HeLa; assay: ATP-based viability loss in HeLa cells – cell-based, CellTiter-Glo luminescence, cherry-pick samples, cytotoxicity control for MITF activator project, dose response (AID 540259); assay type: functional; conditions: Homo sapiens
[9] = (§1) Counterscreen for antagonists of the orexin 1 receptor (OX1R; HCRTR1): Fluorescence-based cell-based high throughput dose response assay to identify antagonists of the parental CHO cell line. [Related pubchem assays (depositor defined):AID434989, AID435008, AID463079, AID485270, AID492963, AID492964, AID492965, AID493232, AID504699, AID504701]; assay type: functional
[10] = viability loss of HMLE_sh_eGFP cells – cell-based, luminescence, counter-screen for HMLE_sh_ECad selective toxicity project, dose response (AID 463074); assay type: functional, Homo sapiens;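 also: HMLE human mammary epithelial cells expressing control shRNA against eGFP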
[11] = molecular target: T4, Orexin/Hypocretin receptor type 1 (Homo sapiens, UniProt O43613); assay: (§2) Fluorescence-based cell-based high throughput dose response assay for antagonists of the orexin 1 receptor (OX1R; HCRTR1). [Related pubchem assays (depositor defined):AID434989, AID435008, AID463079, AID485270, AID492963, AID492964, AID492965, AID493232, AID504717, AID504718]; assay type: functional
T4 sequence (O43613 whole entry): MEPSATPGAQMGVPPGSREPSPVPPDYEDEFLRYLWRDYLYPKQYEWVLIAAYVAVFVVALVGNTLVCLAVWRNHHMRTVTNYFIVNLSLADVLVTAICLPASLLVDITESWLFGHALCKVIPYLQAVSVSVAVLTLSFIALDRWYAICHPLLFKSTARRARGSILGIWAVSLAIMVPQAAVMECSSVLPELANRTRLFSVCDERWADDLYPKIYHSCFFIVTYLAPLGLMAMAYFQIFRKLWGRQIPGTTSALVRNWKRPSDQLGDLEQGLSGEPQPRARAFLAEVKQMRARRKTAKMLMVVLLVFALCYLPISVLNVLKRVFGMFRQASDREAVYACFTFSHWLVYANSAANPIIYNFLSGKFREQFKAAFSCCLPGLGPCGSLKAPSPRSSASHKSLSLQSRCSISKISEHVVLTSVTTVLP

[12] = tested on: Streptococcus; assay: GAS UMAA2166 growth inhibition – luminescence, BacTiterGlo, counter-screen for streptokinase expression inhibitor project, dose response (AID 1915); assay type: functional, organism-based;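 also: potency for reduction of bacterial viability or growth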
[13] = molecular target: T5, Orexin receptor type 2 (Homo sapiens, UniProt O43614); assay: Counterscreen assay for antagonists of the orexin 1 receptor (OX1R; HCRTR1): Homogeneous Time Resolved Fluorescence (HTRF)-based cell-based dose response assay for antagonists of the orexin 2 receptor (OX2R; HCRTR2), run by assay provider.; assay type: functional
T5 sequence (O43614 whole entry): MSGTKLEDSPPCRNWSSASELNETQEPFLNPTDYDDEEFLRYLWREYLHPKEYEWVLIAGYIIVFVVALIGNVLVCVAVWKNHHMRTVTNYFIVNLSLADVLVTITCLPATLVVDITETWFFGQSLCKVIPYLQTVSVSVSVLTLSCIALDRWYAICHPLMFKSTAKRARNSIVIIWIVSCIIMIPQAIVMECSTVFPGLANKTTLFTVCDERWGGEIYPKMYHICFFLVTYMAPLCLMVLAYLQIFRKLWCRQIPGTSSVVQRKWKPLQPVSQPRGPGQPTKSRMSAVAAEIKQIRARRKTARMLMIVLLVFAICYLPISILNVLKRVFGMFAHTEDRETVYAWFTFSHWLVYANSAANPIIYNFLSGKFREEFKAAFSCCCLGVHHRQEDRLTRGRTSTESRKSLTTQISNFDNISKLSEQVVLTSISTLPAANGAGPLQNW

[14] = Luminescence Cell-Based Dose Retest to Confirm Inhibitors of Cancer Stem Cells. [Related pubchem assays (depositor defined):AID2717, AID2721]; assay type: functional; conditions: Homo sapiens
[15] = molecular target: T5, Orexin receptor type 2; assay: Counterscreen assay for antagonists of the orexin 1 receptor (OX1R; HCRTR1): Fluorescence-based cell-based dose response assay for antagonists of the orexin 2 receptor (OX2R; HCRTR2), run by assay provider.; assay type: functional
[16] = molecular target: T4, Orexin/Hypocretin receptor type 1; assay: as §2, with “Homogeneous Time Resolved Fluorescence (HTRF)-based” for “Fluorescence-based”; assay type: functional
[17] = tested on: Streptococcus sp. 'group A'; assay: Streptococcus pyogenes SK(-)GAS viability under kanamycin – luminescence, BacTiterGlo, confirmation, counter-screen for streptokinase expression inhibitor project, dose response (AID 1900); assay type: functional, organism-based
[18] = molecular target: T6, Streptokinase A (Streptococcus pyogenes serotype M1, UniProt P10520); assay: viability-normalized secreted streptokinase activity reduction – plasminogen activation absorbance, OD405, dose response (AID 1914); assay type: functional, Streptococcus pyogenes M1 GAS;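 also: secreted streptokinase activity via plasminogen activation per viability signal from cell pellet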
T6 sequence (P10520 whole entry): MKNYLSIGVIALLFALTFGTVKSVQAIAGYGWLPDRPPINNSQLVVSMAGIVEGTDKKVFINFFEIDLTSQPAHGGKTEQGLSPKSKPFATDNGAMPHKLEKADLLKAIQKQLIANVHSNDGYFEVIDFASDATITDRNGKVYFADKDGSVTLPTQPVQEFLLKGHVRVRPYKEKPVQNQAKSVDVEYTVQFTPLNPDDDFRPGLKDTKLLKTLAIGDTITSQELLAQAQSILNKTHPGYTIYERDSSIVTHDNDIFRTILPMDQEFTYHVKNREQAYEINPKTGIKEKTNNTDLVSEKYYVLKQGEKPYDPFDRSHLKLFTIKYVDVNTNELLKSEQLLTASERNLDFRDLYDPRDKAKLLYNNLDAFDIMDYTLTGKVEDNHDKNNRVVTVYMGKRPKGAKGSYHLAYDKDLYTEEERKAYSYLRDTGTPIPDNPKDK

[19] = tested on: CHO-K1; assay: as §1, with “Homogeneous time resolved fluorescence (HTRF)-based” for “Fluorescence-based”, “cell-based” for “cell-based high throughput”, “CHO-K1” for “CHO”; assay type: functional; conditions: Cricetulus griseus;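 also: potency for inhibition of ATP-stimulated IP1 production as antagonists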
[20] = molecular target: Dual specificity tyrosine-phosphorylation-regulated kinase 1A (Rattus norvegicus, UniProt Q63470); assay type: biochemical, Homo sapiens

C[C@H]1c2cccc(O)c2C(=O)C2=C(O)[C@]3(O)C(=O)C(C(N)=O)=C(O)[C@@H](N(C)C)[C@@H]3[C@@H](O)[C@@H]21
IC50 [1]: 10.4 µM (active)
AC50 [2]: 783 nM (active)
AC50 [3]: 20.8 µM (active)
CC50 [4]: 36 µM (active)
IC50 [5]: 42.9 µM (inactive)
IC50 [6]: > 100 µM (active)
EC50 [7]: 37.9 µM (active)

Cc1ccc(NC(=O)C(=O)NCc2ccccn2)cc1
AC50 [8]: > 350 µM (inactive)

O=c1c2ccccc2oc2cc(-c3ccc4[nH]ccc4c3)ccc12
IC50 [9]: 48.8 µM (inactive)
AC50 [10]: 290 nM (inconclusive)
IC50 [11]: 6.96 µM (active)
EC50 [12]: > 150 µM (not active)
IC50 [13]: > 50 µM (inactive)
AC50 [14]: 255 nM (active)
IC50 [15]: 40 µM (inactive)
IC50 [16]: 2.71 µM (active)
EC50 [17]: 8.57 µM (active)
EC50 [18]: > 150 µM (not active)
IC50 [19]: > 66.3 µM (inactive)

COc1ccc(C=C2SC(=S)NC2=O)cc1
AC50 [20]: 104 nM (active)
